Experimental data reported in ChEMBL document CHEMBL5465560, “Selectivity Literature for EUbOPEN Chemogenomic Library” (2024).

How the values were obtained:
[1] = target: T1, Histone-arginine methyltransferase CARM1 (Homo sapiens) (UniProt Q86X55); experiment: Selectivity interaction (Methyltransferase screen (radiometric assays, panel of 8 PRMTs, 21 protein lysine methyltransferases, 3 DNA methyltransferases, and one RNA methyltransferase)) EUB0000272b CARM1
T1 sequence (whole entry): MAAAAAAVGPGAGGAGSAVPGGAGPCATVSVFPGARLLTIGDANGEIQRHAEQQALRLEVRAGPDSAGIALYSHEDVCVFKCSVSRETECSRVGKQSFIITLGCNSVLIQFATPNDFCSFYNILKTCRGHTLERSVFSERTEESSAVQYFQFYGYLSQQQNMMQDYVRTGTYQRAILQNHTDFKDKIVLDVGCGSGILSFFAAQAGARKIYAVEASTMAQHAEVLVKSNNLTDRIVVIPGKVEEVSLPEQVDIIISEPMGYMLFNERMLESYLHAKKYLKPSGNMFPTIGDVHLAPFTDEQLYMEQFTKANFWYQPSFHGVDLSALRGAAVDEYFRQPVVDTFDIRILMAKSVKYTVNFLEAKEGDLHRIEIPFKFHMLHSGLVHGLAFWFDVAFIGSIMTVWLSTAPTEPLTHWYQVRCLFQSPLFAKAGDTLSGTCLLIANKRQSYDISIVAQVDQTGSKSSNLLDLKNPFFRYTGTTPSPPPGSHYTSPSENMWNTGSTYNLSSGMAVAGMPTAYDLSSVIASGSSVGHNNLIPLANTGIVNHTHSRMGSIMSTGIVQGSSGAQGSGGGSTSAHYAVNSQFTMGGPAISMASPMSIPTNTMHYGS

[2] = target: Macrophage-stimulating protein receptor (Homo sapiens, UniProt Q04912); experiment: Selectivity interaction (KinomeScan (DiscoverX)) EUB0000229b MST1R; conditions: at 10 µM
[3] = target: Dual specificity protein kinase CLK3 (Homo sapiens, UniProt P49761); experiment: Selectivity interaction (KinomeScan (DiscoverX)) EUB0000092b CLK3; conditions: at 10 µM
Sequence of Dual specificity protein kinase CLK3 (P49761 whole entry, looked up): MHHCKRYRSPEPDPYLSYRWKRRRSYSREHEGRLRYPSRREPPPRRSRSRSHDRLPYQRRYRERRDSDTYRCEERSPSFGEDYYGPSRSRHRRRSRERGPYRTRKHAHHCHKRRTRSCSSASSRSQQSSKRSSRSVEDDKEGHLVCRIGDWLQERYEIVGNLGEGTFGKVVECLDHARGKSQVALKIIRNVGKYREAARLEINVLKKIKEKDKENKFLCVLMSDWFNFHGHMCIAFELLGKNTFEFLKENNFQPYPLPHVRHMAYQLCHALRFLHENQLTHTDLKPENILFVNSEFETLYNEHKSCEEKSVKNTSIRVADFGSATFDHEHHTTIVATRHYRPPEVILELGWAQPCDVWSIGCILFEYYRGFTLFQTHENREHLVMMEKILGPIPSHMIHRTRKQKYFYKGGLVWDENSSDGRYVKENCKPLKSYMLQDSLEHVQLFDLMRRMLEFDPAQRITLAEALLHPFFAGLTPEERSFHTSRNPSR

[4] = target: RAF proto-oncogene serine/threonine-protein kinase (Homo sapiens) (UniProt P04049); conditions: at 10 µM
[5] = target: T2, Mitogen-activated protein kinase kinase kinase 12 (Homo sapiens) (UniProt Q12852); experiment: Selectivity interaction (KinomeScan (DiscoverX)) EUB0001079a MAP3K12; conditions: at 1 µM
T2 sequence (whole entry): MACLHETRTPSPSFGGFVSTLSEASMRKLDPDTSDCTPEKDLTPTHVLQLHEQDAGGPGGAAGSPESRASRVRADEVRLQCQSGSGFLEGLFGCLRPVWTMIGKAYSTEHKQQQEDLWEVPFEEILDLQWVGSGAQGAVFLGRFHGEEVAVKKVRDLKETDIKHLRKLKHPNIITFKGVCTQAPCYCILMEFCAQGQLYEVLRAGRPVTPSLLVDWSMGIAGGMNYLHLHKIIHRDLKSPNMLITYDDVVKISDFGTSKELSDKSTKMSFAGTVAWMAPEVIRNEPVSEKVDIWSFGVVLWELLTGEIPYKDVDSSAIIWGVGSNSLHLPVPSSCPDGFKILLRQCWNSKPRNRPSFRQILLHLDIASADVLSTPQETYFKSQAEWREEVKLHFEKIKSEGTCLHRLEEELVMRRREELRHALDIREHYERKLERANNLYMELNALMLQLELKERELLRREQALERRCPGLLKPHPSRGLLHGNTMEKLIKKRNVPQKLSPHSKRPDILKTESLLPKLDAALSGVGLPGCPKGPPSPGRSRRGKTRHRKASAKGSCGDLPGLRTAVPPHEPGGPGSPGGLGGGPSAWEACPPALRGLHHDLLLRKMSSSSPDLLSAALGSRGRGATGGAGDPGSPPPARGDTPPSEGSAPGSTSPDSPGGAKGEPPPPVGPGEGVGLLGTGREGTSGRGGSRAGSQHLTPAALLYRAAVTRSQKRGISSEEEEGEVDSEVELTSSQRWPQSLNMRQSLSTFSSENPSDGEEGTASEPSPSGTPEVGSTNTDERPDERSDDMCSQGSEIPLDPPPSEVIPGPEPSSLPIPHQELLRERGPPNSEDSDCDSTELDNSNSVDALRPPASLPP

[6] = target: Serine/threonine-protein kinase SMG1 (Homo sapiens) (UniProt Q96Q15); experiment: Selectivity interaction (Kinase panel (KiNativ target engagement assay in Jurkat cells)) EUB0001635a SMG1; format: cell-based; conditions: Selectivity number of off-targets 0.0, Selectivity number of targets 233.0, Source Knowledge https://www.sciencedirect.com/science/article/pii/S2451945619300674?via%3Dihub, at 1 µM
Sequence of Serine/threonine-protein kinase SMG1 (Homo sapiens) (Q96Q15 whole entry): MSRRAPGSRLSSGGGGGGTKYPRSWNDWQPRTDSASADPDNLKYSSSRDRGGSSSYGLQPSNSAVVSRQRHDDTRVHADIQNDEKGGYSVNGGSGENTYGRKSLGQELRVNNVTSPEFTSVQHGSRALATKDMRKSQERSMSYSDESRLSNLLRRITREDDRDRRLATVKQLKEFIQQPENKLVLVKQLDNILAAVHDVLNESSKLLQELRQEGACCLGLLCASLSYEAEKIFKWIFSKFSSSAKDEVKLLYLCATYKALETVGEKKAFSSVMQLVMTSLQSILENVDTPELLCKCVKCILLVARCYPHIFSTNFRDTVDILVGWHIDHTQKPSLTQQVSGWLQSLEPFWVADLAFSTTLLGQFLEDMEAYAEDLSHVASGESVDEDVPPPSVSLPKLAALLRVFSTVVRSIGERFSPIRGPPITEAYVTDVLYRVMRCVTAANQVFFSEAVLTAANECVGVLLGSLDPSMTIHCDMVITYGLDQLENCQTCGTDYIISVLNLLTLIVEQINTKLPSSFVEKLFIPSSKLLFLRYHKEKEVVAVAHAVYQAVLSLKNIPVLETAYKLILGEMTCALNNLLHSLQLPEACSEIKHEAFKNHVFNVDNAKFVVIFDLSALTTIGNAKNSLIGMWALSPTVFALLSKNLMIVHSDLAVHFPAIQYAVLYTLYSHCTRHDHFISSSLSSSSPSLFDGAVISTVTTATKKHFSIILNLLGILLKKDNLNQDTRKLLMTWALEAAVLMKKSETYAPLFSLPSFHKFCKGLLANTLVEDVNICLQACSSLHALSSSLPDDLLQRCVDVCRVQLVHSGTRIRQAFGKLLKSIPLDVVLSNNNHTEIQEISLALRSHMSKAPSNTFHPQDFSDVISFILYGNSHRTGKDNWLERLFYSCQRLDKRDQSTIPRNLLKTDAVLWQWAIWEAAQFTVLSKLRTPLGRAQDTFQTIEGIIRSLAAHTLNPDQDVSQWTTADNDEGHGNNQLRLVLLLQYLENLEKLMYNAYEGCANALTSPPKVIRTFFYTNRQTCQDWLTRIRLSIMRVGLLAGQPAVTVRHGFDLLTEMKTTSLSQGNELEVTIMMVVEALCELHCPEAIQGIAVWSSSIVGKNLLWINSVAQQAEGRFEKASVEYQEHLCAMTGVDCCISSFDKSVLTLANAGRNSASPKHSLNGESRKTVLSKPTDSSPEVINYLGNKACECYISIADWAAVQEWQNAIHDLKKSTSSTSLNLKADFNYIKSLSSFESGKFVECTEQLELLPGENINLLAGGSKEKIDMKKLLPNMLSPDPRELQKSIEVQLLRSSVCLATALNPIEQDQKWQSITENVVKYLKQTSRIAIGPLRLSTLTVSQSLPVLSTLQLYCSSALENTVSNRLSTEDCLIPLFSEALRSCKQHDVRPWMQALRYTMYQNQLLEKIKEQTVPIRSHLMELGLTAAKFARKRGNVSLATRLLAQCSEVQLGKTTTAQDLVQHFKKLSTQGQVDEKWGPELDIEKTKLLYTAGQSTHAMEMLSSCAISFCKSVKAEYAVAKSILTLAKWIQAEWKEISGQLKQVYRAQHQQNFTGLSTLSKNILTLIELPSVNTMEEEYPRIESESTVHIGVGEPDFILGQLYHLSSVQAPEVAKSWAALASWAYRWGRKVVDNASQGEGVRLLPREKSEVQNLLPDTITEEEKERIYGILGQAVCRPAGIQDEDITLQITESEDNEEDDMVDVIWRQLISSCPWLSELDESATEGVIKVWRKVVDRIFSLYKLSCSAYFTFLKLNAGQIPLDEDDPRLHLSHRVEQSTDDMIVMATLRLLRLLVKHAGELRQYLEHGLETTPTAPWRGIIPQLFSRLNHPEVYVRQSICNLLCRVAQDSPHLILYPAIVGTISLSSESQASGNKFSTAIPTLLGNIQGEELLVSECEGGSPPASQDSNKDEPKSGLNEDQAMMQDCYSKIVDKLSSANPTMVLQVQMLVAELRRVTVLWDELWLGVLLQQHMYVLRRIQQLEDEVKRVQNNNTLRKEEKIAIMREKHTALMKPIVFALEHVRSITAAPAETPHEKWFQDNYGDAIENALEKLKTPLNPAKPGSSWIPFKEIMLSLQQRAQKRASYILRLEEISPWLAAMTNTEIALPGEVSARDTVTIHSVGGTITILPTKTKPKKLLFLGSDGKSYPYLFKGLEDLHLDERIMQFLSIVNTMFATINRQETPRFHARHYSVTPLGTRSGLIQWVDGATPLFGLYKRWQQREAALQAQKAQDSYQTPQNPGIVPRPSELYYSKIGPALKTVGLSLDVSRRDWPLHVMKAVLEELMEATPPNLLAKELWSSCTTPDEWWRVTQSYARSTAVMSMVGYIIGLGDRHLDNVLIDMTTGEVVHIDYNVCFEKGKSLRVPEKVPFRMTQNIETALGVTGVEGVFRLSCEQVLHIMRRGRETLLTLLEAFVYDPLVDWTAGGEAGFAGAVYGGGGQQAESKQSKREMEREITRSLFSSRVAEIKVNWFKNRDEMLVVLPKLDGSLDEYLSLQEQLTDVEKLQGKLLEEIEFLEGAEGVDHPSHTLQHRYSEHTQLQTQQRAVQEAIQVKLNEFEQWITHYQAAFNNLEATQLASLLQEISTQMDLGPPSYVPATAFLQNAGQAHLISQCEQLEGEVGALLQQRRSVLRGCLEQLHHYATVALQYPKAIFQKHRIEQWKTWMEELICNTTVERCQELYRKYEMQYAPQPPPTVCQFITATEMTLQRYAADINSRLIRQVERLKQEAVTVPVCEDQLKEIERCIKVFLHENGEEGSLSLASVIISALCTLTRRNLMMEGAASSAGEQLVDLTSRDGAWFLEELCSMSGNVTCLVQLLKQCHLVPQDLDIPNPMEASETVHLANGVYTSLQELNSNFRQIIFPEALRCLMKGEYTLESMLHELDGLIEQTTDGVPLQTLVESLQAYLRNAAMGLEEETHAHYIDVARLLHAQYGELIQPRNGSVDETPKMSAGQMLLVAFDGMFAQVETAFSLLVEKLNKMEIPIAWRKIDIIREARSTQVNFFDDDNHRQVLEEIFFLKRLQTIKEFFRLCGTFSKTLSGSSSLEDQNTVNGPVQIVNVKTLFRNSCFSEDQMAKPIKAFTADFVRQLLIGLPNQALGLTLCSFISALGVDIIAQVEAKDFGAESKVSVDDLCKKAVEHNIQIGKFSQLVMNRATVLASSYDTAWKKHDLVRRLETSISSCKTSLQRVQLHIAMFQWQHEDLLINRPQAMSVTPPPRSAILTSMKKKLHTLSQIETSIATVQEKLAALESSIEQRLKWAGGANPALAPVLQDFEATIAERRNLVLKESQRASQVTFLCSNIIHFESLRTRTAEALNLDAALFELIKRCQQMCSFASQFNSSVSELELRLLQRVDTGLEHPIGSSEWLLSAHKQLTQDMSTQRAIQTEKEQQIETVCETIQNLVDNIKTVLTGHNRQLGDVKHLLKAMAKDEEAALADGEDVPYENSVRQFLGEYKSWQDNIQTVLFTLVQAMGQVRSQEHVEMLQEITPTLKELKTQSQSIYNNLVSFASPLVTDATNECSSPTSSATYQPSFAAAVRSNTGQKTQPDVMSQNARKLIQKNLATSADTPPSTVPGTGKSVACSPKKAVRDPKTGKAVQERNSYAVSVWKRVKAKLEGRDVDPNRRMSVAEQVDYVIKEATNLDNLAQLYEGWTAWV

[7] = target: T2, Mitogen-activated protein kinase kinase kinase 12 (Homo sapiens); experiment: Selectivity interaction (KinomeScan (DiscoverX)) EUB0000666a MAP3K12; conditions: at 10 µM
[8] = system: Mast/stem cell growth factor receptor Kit (Homo sapiens), P10721 [V559D,T670I]; experiment: (§1) Selectivity interaction (LanthaScreen Eu Kinase Binding Assay) EUB0001632a KIT; conditions: at 10 µM
[9] = system: Mast/stem cell growth factor receptor Kit (Homo sapiens), P10721 [D816H]; experiment: as §1; conditions: at 10 µM
[10] = system: Mast/stem cell growth factor receptor Kit (Homo sapiens), P10721 [A829P]; experiment: as §1; conditions: at 10 µM
[11] = system: Mast/stem cell growth factor receptor Kit (Homo sapiens), P10721 [D820E]; experiment: as §1; conditions: at 10 µM
[12] = system: Mast/stem cell growth factor receptor Kit (Homo sapiens), P10721 [Y823D]; experiment: as §1; conditions: at 10 µM
[13] = system: Mast/stem cell growth factor receptor Kit (Homo sapiens), P10721 [N822K]; experiment: as §1; conditions: at 10 µM
[14] = system: Mast/stem cell growth factor receptor Kit (Homo sapiens), P10721 [D816V]; experiment: as §1; conditions: at 10 µM
[15] = system: Mast/stem cell growth factor receptor Kit (Homo sapiens), P10721 [V654A]; experiment: as §1; conditions: at 10 µM
[16] = system: Mast/stem cell growth factor receptor Kit (Homo sapiens), P10721 [T670E]; experiment: as §1; conditions: at 10 µM
Sequence of Mast/stem cell growth factor receptor Kit (Homo sapiens), P10721 [T670E] (P10721 whole entry T670E): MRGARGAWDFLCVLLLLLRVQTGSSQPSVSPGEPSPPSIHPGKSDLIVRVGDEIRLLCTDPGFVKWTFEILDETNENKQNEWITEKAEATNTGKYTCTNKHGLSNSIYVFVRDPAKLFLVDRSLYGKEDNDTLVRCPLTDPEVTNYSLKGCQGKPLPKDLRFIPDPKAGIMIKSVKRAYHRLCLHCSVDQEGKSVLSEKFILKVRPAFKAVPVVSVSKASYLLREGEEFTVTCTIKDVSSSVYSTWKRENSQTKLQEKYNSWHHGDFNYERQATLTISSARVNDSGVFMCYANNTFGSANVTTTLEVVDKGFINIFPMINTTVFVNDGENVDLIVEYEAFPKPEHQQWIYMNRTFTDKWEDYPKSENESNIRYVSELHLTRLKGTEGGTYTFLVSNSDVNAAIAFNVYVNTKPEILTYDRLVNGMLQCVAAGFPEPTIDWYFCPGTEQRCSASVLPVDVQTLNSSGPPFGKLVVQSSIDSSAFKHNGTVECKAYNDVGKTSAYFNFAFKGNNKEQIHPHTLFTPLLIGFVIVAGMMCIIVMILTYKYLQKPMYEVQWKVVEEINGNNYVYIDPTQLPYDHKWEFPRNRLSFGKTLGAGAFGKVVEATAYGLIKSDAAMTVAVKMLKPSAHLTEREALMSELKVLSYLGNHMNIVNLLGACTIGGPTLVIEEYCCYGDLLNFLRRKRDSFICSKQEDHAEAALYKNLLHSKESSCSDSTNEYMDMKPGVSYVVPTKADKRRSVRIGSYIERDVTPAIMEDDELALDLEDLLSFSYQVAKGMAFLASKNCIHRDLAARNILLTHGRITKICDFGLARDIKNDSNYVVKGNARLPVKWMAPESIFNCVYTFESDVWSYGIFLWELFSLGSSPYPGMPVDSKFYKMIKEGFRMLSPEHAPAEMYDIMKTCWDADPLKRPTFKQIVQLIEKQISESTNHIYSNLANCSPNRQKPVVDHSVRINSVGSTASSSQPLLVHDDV

[17] = target: T3, Serine/threonine-protein kinase ULK3 (Homo sapiens) (UniProt Q6PHR2); experiment: Selectivity interaction (ActivX KiNativ screen (kinase selectivity in THP-1 cell lysates)) EUB0000639a ULK3; format: subcellular; conditions: lysate, at 5 µM
T3 sequence (whole entry): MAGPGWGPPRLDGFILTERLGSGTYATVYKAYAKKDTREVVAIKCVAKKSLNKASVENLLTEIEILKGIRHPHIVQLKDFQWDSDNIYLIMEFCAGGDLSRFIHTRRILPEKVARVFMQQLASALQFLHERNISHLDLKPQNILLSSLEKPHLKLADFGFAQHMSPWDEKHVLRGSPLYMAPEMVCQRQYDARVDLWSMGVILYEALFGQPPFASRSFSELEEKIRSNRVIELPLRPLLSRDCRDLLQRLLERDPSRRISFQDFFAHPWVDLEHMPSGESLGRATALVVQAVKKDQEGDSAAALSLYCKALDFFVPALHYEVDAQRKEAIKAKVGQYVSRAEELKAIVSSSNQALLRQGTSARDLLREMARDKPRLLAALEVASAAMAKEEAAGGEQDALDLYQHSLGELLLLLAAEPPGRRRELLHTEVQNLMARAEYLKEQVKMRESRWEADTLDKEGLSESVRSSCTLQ

`Cc1cc(C)cc([C@H]2c3cc(C)ccc3NC(=O)CN2C(=O)c2ccc(Br)s2)c1` was tested. Which % of activity ([1]; at 1 µM) did it give?
The % of activity was 102%.

What about the % of activity ([1]; at 10 µM) of the same compound?
The % of activity was 96.7%.

For `COc1cc(N(C)c2ccnc3ccc(C(F)(F)F)cc23)cc(OC)c1OC`, which % binding [2] is on record?
The % binding was 82%.

For `CCC(=O)N1CCN(c2ccc(-n3c(=O)ccc4cnc5ccc(-c6cnc7ccccc7c6)cc5c43)cc2C(F)(F)F)CC1`, which % of control [3] is on record?
The % of control was 43%.

How did the % of control [4] turn out when `CN(C)CCOc1ccc(-c2nc(-c3ccncc3)c(-c3ccc4c(c3)CC/C4=N\O)[nH]2)cc1` was run?
The % of control was 0%.

How did the % of control [5] turn out when `Nc1cnc(N2CCc3cc(S(=O)(=O)Nc4c(F)cc(Cl)cc4F)cc(N4CCCC4=O)c32)nc1` [TP-020n] was run?
Its % of control is 100%.

Which % of engagement [6] does the source give for `C=CC(=O)Nc1ccc(C(=O)Nc2[nH]nc3c2CN(C(=O)N[C@H](CN(C)C)c2ccccc2)C3(C)C)cc1` here?
Its % of engagement is -4.6%.

How did the % of control [7] turn out when `O=C(NOC[C@H](O)CO)c1ccc(F)c(F)c1Nc1ccc(I)cc1F` was run?
The % of control was 78%.

`Cn1cc(-n2cnc3c(NCc4nc5cc(Cl)c(Cl)cc5[nH]4)nc(N4CCOCC4)nc32)cn1` was tested. Which % of inhibition [8] did it give?
The % of inhibition was 1.44%.

And the % of inhibition [9]?
Its % of inhibition is 9.61%.

What about the % of inhibition [10] of the same compound?
The % of inhibition was -25.5%.

What about the % of inhibition [11] of the same compound?
The % of inhibition was -6.81%.

And the % of inhibition [12]?
Its % of inhibition is -40.5%.

And the % of inhibition [13]?
Its % of inhibition is -18.2%.

What about the % of inhibition [14] of the same compound?
Its % of inhibition is -20.9%.

What about the % of inhibition [15] of the same compound?
The % of inhibition was -40.6%.

And the % of inhibition [16]?
The % of inhibition was -20.6%.

Which % of inhibition [17] does the source give for `CC[C@@H]1[C@H](F)C(=O)N[C@@H]1COc1nccc2cc(C(N)=O)c(OC)cc12` [ZIMLOVISERTIB] here?
The % of inhibition was -10.2%.
